From patent US9315451B2, “Tetracycline compounds” (priority 2009, dated 2016)
Like-named read-outs stand apart in the source and are kept apart here.

Experiments:
[1] = test system: tetracycline-resistant tet(M) S. pneumoniae strain SP160; experiment: Neutropenic respiratory infection model for S. pneumoniae (murine lung infection); assay type: in vivo; details: neutropenic BALB/c mice, SP160 intranasal, 30 mg/kg orally at 2 and 12 hours post-infection, lung CFU at 24 hours
Experimental: Neutropenic Respiratory Infection Models for S. pneumoniae
Compounds were tested in a neutropenic BALB/c murine model of lung infection challenged with tetracycline-resistant tet(M) S. pneumoniae strain SP160. Mice were made neutropenic by pre-treatment with cyclophosphamide and infected with SP160 via intranasal administration. Mice were dosed orally with 30 mg/kg compound at 2 and 12 hours post-infection. At 24 hours following initiation of treatment, mice were euthanized and bacterial reduction in the lung was quantified by plating lung homogenates. Data was recorded as log10 reduction in lung colony forming units versus an untreated control group.

[2] = test system: S. aureus Smith (ATCC 13709); experiment: Mouse systemic infection (septicemia) model, S. aureus Smith; assay type: in vivo; details: Staphylococcus aureus, CD-1 female mice; for responders at 3 mg/kg: ATCC13709, iv, IV 3 mg/kg one hour post infection, read-out: SA Smith septicemia survival IV (3 mg/kg); for responders at 3 mg/kg / responders at 30 mg/kg: 48 h, survival at 48 hours; for responders at 30 mg/kg: ATCC13709, po, PO 30 mg/kg one hour post infection, read-out: SA Smith septicemia survival PO (30 mg/kg); for ED50: ATCC13709, dose that prevents 50% of the mice from death, 48 hours
Summary of the method: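 Female CD-1 mice (18-22 g) infected IP with an inoculum lethal to all within 24–48 h. Compound given 1 h post-infection IV ([…]) or PO ([…]), typically six mice per dose group; survival followed for 48 h and PD50 (mg/kg) derived from 48 h survival.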

[3] = Pharmacokinetic studies in rats; assay type: in vivo; details: rat, plasma, male Sprague Dawley rats, fasted; for clearance: read-out: Cl, IV Rat PK; for bioavailability: oral 10 mg/kg vs IV 1 mg/kg, read-out: % F (oral bioavailability), Oral Rat PK; for Cmax: read-out: Cmax, IV Rat PK
Experimental: Pharmacokinetic Studies in Rats Test compounds were evaluated in fasted (no food for 18 hours prior to dosing) male Sprague Dawley rats (3 animals per group) by administration of 1 mg/kg intravenously into the jugular vein and […] by oral gavage. Ten plasma samples were drawn for each dosing route up to 24 hours into heparin-coated vacutainer tubes. The plasma concentrations of the test compounds were quantified by LC/MS/MS using an internal standards. WinNONLIN was used to determine PK parameters ±standard deviation (AUC, Cmax, CL, Vss and % oral bioavailabilty (% F) and are set forth in Table F.

[4] = test system: Uropathogenic E. coli EC200; experiment: Murine kidney infection model, uropathogenic E. coli EC200; assay type: in vivo; details: BALB/c mice; for log reduction at 2 mg/kg: PO 2 mg/kg at 12 and 24 hours post infection; for EC200 UTI IV, log10 reduction in CFUs in the kidney versus untreated controls: @ 5 mpk in cells (column head 3 mg/kg)
Experimental: (§1) Kidney Infection Models for Uropathogenic E. coli EC200 and K. pneumoniae ESBL Isolate KP453
Compounds were tested in a BALB/c murine kidney infection model challenged with tetracycline-resistant E. coli strain uropathogenic […] via intravenous injection. […] For IV administration test compound was dosed at 3 mg/kg. Thirty-six hours following initiation of treatment, mice were euthanized and bacterial reduction in the kidney was quantified by plating kidney homogenates. Results are reported in Table D as log10 reduction in colony forming units (CFUs) in the kidney versus untreated controls (receiving no test compound).

[5] = test system: K. pneumoniae ESBL Isolate KP453; experiment: Murine kidney infection model, K. pneumoniae ESBL isolate KP453; assay type: in vivo; details: BALB/c mice; for log reduction at 50 mg/kg: Klebsiella pneumoniae, po, 36 h, PO 50 mg/kg at 9 and 24 hours post infection, read-out: KP453 ESBL UTI PO, log10 reduction in CFUs in the kidney versus untreated controls; for KP453 ESBL UTI IV, log10 reduction in CFUs in the kidney versus untreated controls: IV 20 mg/kg
Experimental: as §1
Compounds were also tested in BALB/c murine kidney infection model challenged with levofloxacin-resistant, ESBL^+ strain KP453 via intravenous injection with 2% carageenen. At 9 and 24 hours post infection mice were treated orally with 50 mg/kg of test compound. For IV administration, test compounds were dosed at 20 mg/kg. At 36 hours following initiation of treatment, mice were euthanized and bacterial reduction in the kidney was quantified by plating homogenates. Results are reported in Table D as log10 reduction in colony forming units (CFUs) in the kidney versus untreated controls (receiving no test compound).

[6] = test system: tetracycline-resistant tet(M) MRSA strain SA191; experiment: Neutropenic respiratory infection model for MRSA (murine lung infection); assay type: in vivo, Staphylococcus aureus; details: neutropenic BALB/c mice, SA191 intranasal, 50 mg/kg orally at 2 and 12 hours, lung CFU at 24 hours
Experimental: Neutropenic Respiratory Infection Model for MRSA
Compounds were tested in a neutropenic BALB/c murine model of lung infection challenged with a tetracycline-resistant tet(M) MRSA strain SA191 infected via intranasal administration. At 2 and 12 hours mice were dosed orally with 50 mg/kg compound. At 24 hours following initiation of treatment, mice were euthanized and bacterial reduction in the lung was quantified by plating lung homogenates. Data was recorded as log10 reduction in lung colony forming units versus an untreated control group.

Monkey PK = assay type: in vivo; details: cynomolgus monkey, plasma, cynomolgus monkeys; for bioavailability: PO 10 mg/kg vs IV 1 mg/kg, read-out: % F (oral bioavailability), monkey
Experimental: Compounds S24-9-23 and S16-10-161 were evaluated in 3 non-naïve cynomolgus monkeys. Each animal received a single IV dose of 1 mg/kg and after a 7-day washout, received a single PO dose of 10 mg/kg. Nine to ten plasma samples were drawn for each dosing route up to 24 hours into heparin-coated vacutainer tubes. Dose formulations were verified with a 5-point calibration curve. The plasma concentration of the compound was quantified by LC/MS/MS using an internal standard.

[7] = PO, read-out: SA Smith septicemia PD50 PO
[8] = IV 1 mg/kg, read-out: AUC, IV Rat PK
[9] = oral gavage 10 mg/kg, read-out: AUC, Oral Rat PK
[10] = Escherichia coli, po, 36 h, read-out: EC200 UTI PO, log10 reduction in CFUs in the kidney versus untreated controls
[11] = single IV dose of 1 mg/kg, read-out: AUC, IV, monkey
[12] = single PO dose of 10 mg/kg, read-out: AUC, oral, monkey
[13] = single PO dose of 10 mg/kg, read-out: Cmax, oral, monkey

Compound	Bacterial Reduction in the Lung (Log10 change from 24 hour control) [1]	responders at 3 mg/kg [2]	responders at 30 mg/kg [2]	ED50 [2, 7]	clearance ([3]; IV 1 mg/kg)	bioavailability [3]	AUC [3, 8]	Cmax ([3]; IV 1 mg/kg)	AUC [3, 9]	log reduction at 2 mg/kg [4, 10]	log reduction at 50 mg/kg [5]	Bacterial Reduction in the Lung (Log10 change from 24 hour control) [6]	EC200 UTI IV, log10 reduction in CFUs in the kidney versus untreated controls [4]	KP453 ESBL UTI IV, log10 reduction in CFUs in the kidney versus untreated controls [5]	also measured
CCC(C)(C)N(C)Cc1cc(O)c2c(c1F)C[C@H]1C[C@H]3[C@H](N(C)C)C(O)=C(C(N)=O)C(=O)[C@@]3(O)C(O)=C1C2=O [Compound S2-4-28]	−0.06 Log10	100%	100%	3 mg/kg	17.6 mL/min/kg	44.7%	970 ng·h/mL	170 ng/mL	4380 ng·h/mL						ED50 ([2]; IV, read-out: SA Smith septicemia PD50 IV): 0.62 mg/kg
CN(C)[C@@H]1C(O)=C(C(N)=O)C(=O)[C@@]2(O)C(O)=C3C(=O)c4c(O)cc(CN(C)C(C)(C)C)c(Cl)c4C[C@H]3C[C@@H]12 [Compound S15-13-15]		100%	100%	3.5 mg/kg	15.4 mL/min/kg	21%	1100 ng·h/mL	154 ng/mL	2260 ng·h/mL	2.82	1.45				
CN(C)[C@@H]1C(O)=C(C(N)=O)C(=O)[C@@]2(O)C(O)=C3C(=O)c4c(O)cc(CN5CCCCCC5)c(Cl)c4C[C@H]3C[C@@H]12 [Compound S15-13-188]	−0.22 Log10	100%	100%	8.3 mg/kg							1.55				log reduction at 3 mg/kg ([4]; Escherichia coli, po, 36 h, PO @ 3 mpk, read-out: EC200 UTI PO, log10 reduction in CFUs in the kidney versus untreated controls): 3.48
C[C@H]1CC[C@H](C)N1Cc1cc(O)c2c(c1Cl)C[C@H]1C[C@H]3[C@H](N(C)C)C(O)=C(C(N)=O)C(=O)[C@@]3(O)C(O)=C1C2=O [Compound S15-13-223]	−0.12 Log10	100%	100%							2.27	1.32				
C[C@@H](NCc1cc(O)c2c(c1N(C)C)C[C@H]1C[C@H]3[C@H](N(C)C)C(O)=C(C(N)=O)C(=O)[C@@]3(O)C(O)=C1C2=O)C(C)(C)C [Compound S16-10-79]	−4.31 Log10	100%	100%									−1.27 Log10			
CN(C)c1c(CN2CCCCC2)cc(O)c2c1C[C@H]1C[C@H]3[C@H](N(C)C)C(O)=C(C(N)=O)C(=O)[C@@]3(O)C(O)=C1C2=O [Compound S16-10-161]		100%	100%		12.8 mL/min/kg	31.6%	1310 ng·h/mL	689 ng/mL	4440 ng·h/mL	1.85	1.04		@ 5 mpk −3.99 log10	−3.09 log10	bioavailability (Monkey PK): 42.7%; clearance (Monkey PK; single IV dose of 1 mg/kg, read-out: Cl, IV, monkey (printed C1, mL/hr) (converted)): 184 mL/h; Vd (Monkey PK; single IV dose of 1 mg/kg, read-out: Vdss, IV, monkey (unit inferred)): 4.05 L/kg; AUC (Monkey PK; [11]): 5680 ng·h/mL; Cmax (Monkey PK; single IV dose of 1 mg/kg, read-out: Cmax, IV, monkey (unit inferred)): 861 ng/mL; AUC (Monkey PK; [12]): 26000 ng·h/mL; Cmax (Monkey PK; [13]): 982 ng/mL
COc1c(CN2CCCCC2)cc(O)c2c1C[C@H]1C[C@H]3[C@H](N(C)C)C(O)=C(C(N)=O)C(=O)[C@@]3(O)C(O)=C1C2=O [Compound S24-9-23]		100%	100%		9.26 mL/min/kg	12.2%	1830 ng·h/mL	795 ng/mL	2230 ng·h/mL	2.99	2.93		@ 5 mpk −4.34 log10	−2.95 log10	bioavailability (Monkey PK): 36.8%; clearance (Monkey PK; single IV dose of 1 mg/kg, read-out: Cl, IV, monkey (converted)): 2.4 mL/min/kg; Vd (Monkey PK; single IV dose of 1 mg/kg, read-out: Vdss, IV, monkey): 3.4 L/kg; AUC (Monkey PK; [11]): 7070 ng·h/mL; Cmax (Monkey PK; single IV dose of 1 mg/kg, read-out: Cmax, IV, monkey): 1370 ng/mL; AUC (Monkey PK; [12]): 22800 ng·h/mL; Cmax (Monkey PK; [13]): 1350 ng/mL
CN(C)[C@@H]1C(O)=C(C(N)=O)C(=O)[C@@]2(O)C(O)=C3C(=O)c4c(O)c(N)c(CN5CCCCCC5)c(Cl)c4C[C@H]3C[C@@H]12 [Compound S29-2-4]		100%	83%									−1.29 Log10			
COc1c(CN(C)C(C)(C)C2CC2)cc(O)c2c1C[C@H]1C[C@H]3[C@H](N(C)C)C(O)=C(C(N)=O)C(=O)[C@@]3(O)C(O)=C1C2=O [S24-9-21]	−0.89 Log10	100%	100%							2.3	2.16	−1.98 Log10	@ 5 mpk −4.09 log10	−2.87 log10	
